According to US20230131899A1, “INHIBITORS OF MICROBIALLY INDUCED AMYLOID” (Axial Therapeutics, Inc., priority 2020, published 2023):
Read-outs that look alike come from different tables or passages of the source.

Target: T1, E. coli CsgA (Escherichia coli, UniProt P28307)
T1 construct: made in house; host or cells: E. coli NEB 3016 slyD::kan, pET11d
Assay: In vitro ThioflavinT assay of CsgA aggregation (CsgA ThT Assay)
Format: biochemical
Summary of the method: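 Purified C-terminal His-tagged CsgA, monomerised by desalting and 30-kDa filtration, at 2-20 μM with 20-40 μM ThT in 50 mM potassium phosphate pH 7.3, 1% DMSO, compounds 3.125-200 uM; room temperature, fluorescence (ex 438/em 495 nm) read every 15 min. Background-subtracted signal expressed as percent inhibition versus vehicle at 6-6.5 or 8-9 h, or as percent control AUC.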

[1] = read-out: CsgA ThT Assay (2 μM CsgA) % Control Bmax 25 μM, activity range, class symbol, CsgA 2 μM, white plates, compound 25 μM
[2] = read-out: CsgA ThT Assay (2 μM CsgA) % Control Bmax 25 μM, mean Bmax as percentage of DMSO control, CsgA 2 μM, white plates, compound 25 μM
[3] = read-out: CsgA ThT Assay (2 μM CsgA) % Control Bmax 100 μM, activity range, class symbol, CsgA 2 μM, white plates, compound 100 μM
[4] = read-out: CsgA ThT Assay (2 μM CsgA) % Control Bmax 100 μM, mean Bmax as percentage of DMSO control, CsgA 2 μM, white plates, compound 100 μM
[5] = mean AUC as % of DMSO control, CsgA 10 μM, black plates, compound 100 μM, 1005 minutes

T1 sequence (P28307 23-151): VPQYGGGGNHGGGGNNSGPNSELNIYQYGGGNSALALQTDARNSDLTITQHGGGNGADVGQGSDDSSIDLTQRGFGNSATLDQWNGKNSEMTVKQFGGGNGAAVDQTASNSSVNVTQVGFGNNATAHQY

Row | Structure (SMILES) | remaining activity at 25 µM [1] [%] | remaining activity at 25 µM [2] [%] | remaining activity at 100 µM [3] [%] | remaining activity at 100 µM [4] [%] | CsgA ThT Assay (10 μM CsgA) % Control AUC at 1005 minutes, 25 μM (activity range) (CsgA 10 μM, black plates, compound 25 μM, 1005 minutes, class symbol) | CsgA ThT Assay (10 μM CsgA) % Control AUC at 1005 minutes, 100 μM (activity range) (CsgA 10 μM, black plates, compound 100 μM, 1005 minutes, class symbol) | CsgA ThT Assay (10 μM CsgA) % Control AUC at 1005 minutes, 25 μM (mean AUC as % of DMSO control, CsgA 10 μM, black plates, compound 25 μM, 1005 minutes) [%] | CsgA ThT Assay (10 μM CsgA) % Control AUC at 1005 minutes, 100 μM [5] [%] | remaining activity at 25 µM (read-out: CsgA ThT Assay (10 μM CsgA) % Control AUC at 1005 minutes, 25 μM (activity range), CsgA 10 μM, black plates, compound 25 μM, 1005 minutes, class symbol) [%] | remaining activity at 25 µM (read-out: CsgA ThT Assay (10 μM CsgA) % Control AUC at 1005 minutes, 25 μM, mean AUC as % of DMSO control, CsgA 10 μM, black plates, compound 25 μM, 1005 minutes) [%] | remaining activity at 100 µM (read-out: CsgA ThT Assay (10 μM CsgA) % Control AUC at 1005 minutes, 100 μM (activity range), CsgA 10 μM, black plates, compound 100 μM, 1005 minutes, class symbol) [%]
1 | CCCN1CC(C(=O)O)n2c(c(-c3cccc(C(F)(F)F)c3)c(Cc3cccc4ccccc34)c(OCC)c2=O)S1(=O)=O (stereo not shown) [Compound 143, 7-ethoxy-8-(naphthalen-1-ylmethyl)-6-oxo-2-propyl-9-(3-(trifluoromethyl)phenyl)-3,4-dihydro-2H,6H-pyrido[1,2-e][1,2,5]thiadiazine-4-carboxylic acid 1,1-dioxide] | > 60 | 87 | > 60 | 88 | – | – | – | – | – | – | –
2 | NC(=O)c1c(Cc2cccc3ccccc23)c(-c2cccc(C(F)(F)F)c2)c2n(c1=O)C(C(=O)O)CN(CCCO)S2(=O)=O (stereo not shown) [Compound 184, 7-carbamoyl-2-(3-hydroxypropyl)-8-(naphthalen-1-ylmethyl)-6-oxo-9-(3-(trifluoromethyl)phenyl)-3,4-dihydro-2H,6H-pyrido[1,2-e][1,2,5]thiadiazine-4-carboxylic acid 1,1-dioxide] | 31 to 60 | 45 | 11 to 31 | 22 | – | – | – | – | – | – | –
3 | O=C(O)C1CN(Cc2ccc(CO)cc2)c2c(-c3cccc(C(F)(F)F)c3)c(Cc3cccc4ccccc34)c(Cl)c(=O)n21 (stereo not shown) [Compound 170, 6-chloro-1-(4-(hydroxymethyl)benzyl)-7-(naphthalen-1-ylmethyl)-5-oxo-8-(3-(trifluoromethyl)phenyl)-1,2,3,5-tetrahydroimidazo[1,2-a]pyridine-3-carboxylic acid] | > 60 | 62 | 31 to 60 | 38 | – | – | – | – | – | – | –
4 | NC(=O)c1c(Cc2cccc3ccccc23)c(-c2cccc(C(F)(F)F)c2)c2n(c1=O)C(C(=O)O)CN(C1CCCC1)S2(=O)=O (stereo not shown) [Compound 176, 7-carbamoyl-2-cyclopentyl-8-(naphthalen-1-ylmethyl)-6-oxo-9-(3-(trifluoromethyl)phenyl)-3,4-dihydro-2H,6H-pyrido[1,2-e][1,2,5]thiadiazine-4-carboxylic acid 1,1-dioxide] | 11 to 31 | 25 | 11 to 31 | 24 | – | – | – | – | – | – | –
5 | CCCN1CC(C(=O)O)n2c(c(-c3cccc(C(F)(F)F)c3)c(Cc3cccc4ccccc34)cc2=O)S1(=O)=O (single isomer, unassigned) [Compound 016b, 8-(naphthalen-1-ylmethyl)-6-oxo-2-propyl-9-(3-(trifluoromethyl)phenyl)-3,4-dihydro-2H,6H-pyrido[1,2-e][1,2,5]thiadiazine-4-carboxylic acid 1,1-dioxide] | – | – | – | – | (++) (% control AUC of 31 to 60%) | (+++) (% control AUC of 11 to 31%) | 33 | 23 | – | – | –
6 | CCCCCN1CC(C(=O)O)n2c(c(-c3cccc(C(F)(F)F)c3)c(Cc3cccc4ccccc34)cc2=O)S1(=O)=O (single isomer, unassigned) [Compound 025a, 8-(naphthalen-1-ylmethyl)-6-oxo-2-pentyl-9-(3-(trifluoromethyl)phenyl)-3,4-dihydro-2H,6H-pyrido[1,2-e][1,2,5]thiadiazine-4-carboxylic acid 1,1-dioxide] | – | – | – | – | – | – | – | 143 | 31 to 60 | 38 | > 60
7 | O=C(O)C1CN(Cc2ccccc2)c2c(-c3cccc(C(F)(F)F)c3)c(C(F)(F)c3cccc4ccccc34)c(Br)c(=O)n21 (stereo not shown) [Compound 155, 1-benzyl-6-bromo-7-(difluoro(naphthalen-1-yl)methyl)-5-oxo-8-(3-(trifluoromethyl)phenyl)-1,2,3,5-tetrahydroimidazo[1,2-a]pyridine-3-carboxylic acid] | 31 to 60 | 57 | > 60 | 112 | – | – | – | – | – | – | –
